Calls of active or inactive are those of the source. The rule behind the calls is not given here.
Key:
[1] = biological target: T1, Arginase-1 (Homo sapiens) (UniProt P05089); test: (§1) Displacement of [14C-guanidino]-L-arginine from human recombinant full length arginase 1 expressed in Escherichia coli BL21(DE3) by fixed point assay
T1 sequence (whole entry): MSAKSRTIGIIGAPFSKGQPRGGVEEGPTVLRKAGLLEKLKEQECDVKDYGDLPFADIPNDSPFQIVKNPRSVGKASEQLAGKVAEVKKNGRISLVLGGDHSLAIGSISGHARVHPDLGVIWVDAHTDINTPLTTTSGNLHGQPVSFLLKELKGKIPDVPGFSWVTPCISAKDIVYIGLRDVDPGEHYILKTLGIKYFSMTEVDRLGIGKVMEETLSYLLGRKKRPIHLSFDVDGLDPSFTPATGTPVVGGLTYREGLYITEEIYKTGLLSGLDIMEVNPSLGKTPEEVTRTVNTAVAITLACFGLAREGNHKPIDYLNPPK

[2] = Ratio of IC50 for Mycoplana ramosa acetylpolyamine amidohydrolase to IC50 for HDAC8
Arginase-1 = biological target: T2, Arginase-1 (Homo sapiens, UniProt P05089); test: as §1
T2 sequence (P05089 whole entry): T1 sequence (whole entry)

Histone deacetylase 4 = Histone deacetylase 4 (Homo sapiens, UniProt P56524); test: Inhibition of human HDAC4 catalytic domain (residues Thr648-Thr1057) expressed in Escherichia coli BL21using fluorogenic substrate by fluorescence assay
Sequence of Histone deacetylase 4 (P56524 whole entry, the tested form may be a part): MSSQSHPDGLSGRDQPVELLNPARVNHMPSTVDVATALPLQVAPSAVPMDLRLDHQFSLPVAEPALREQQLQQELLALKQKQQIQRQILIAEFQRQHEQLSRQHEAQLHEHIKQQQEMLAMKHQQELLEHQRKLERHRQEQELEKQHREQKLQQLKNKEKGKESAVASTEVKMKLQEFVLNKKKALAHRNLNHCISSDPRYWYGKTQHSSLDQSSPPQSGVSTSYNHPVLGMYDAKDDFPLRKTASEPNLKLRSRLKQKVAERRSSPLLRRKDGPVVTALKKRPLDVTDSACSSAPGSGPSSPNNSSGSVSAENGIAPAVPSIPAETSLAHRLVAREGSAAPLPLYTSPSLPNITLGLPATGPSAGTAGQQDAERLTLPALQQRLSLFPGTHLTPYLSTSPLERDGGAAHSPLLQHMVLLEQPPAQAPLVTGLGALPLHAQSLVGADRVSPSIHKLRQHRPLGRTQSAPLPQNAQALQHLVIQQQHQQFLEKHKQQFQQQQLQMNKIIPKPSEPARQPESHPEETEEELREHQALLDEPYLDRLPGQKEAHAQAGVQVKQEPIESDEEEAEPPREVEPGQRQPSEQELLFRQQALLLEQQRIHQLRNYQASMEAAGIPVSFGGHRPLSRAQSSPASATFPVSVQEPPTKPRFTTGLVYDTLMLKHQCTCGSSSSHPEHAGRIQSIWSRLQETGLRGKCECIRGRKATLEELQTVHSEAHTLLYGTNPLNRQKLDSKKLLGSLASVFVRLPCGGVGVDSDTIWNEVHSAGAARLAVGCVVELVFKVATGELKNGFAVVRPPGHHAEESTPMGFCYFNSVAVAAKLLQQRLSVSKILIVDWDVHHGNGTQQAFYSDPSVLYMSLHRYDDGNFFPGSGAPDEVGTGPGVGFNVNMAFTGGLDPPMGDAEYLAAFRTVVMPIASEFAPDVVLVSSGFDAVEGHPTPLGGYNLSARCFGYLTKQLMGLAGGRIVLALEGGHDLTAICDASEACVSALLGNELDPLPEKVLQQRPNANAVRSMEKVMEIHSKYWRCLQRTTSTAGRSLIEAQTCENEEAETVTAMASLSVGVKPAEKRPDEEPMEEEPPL

Question: For `N[C@@H](CCCCC(=O)C(F)(F)F)C(=O)O`, which inhibition [1] is on record?
Answer: inactive

Question: What about the Ratio IC50 [2] of the same compound?
Answer: 73

Question: Which Kd (Arginase-1) does the source give for `N[C@@H](CCCCC=O)C(=O)O` here?
Answer: 60 µM

Question: For `O=C(c1ccc(C(=O)C(F)(F)F)s1)N1CCn2c(-c3ccccc3)cnc2C1`, which IC50 (Histone deacetylase 4) is on record?
Answer: 0.367 µM

— ChEMBL document CHEMBL1833881, “Synthesis of a new trifluoromethylketone analogue of l-arginine and contrasting inhibitory activity against human arginase I and histone deacetylase 8” (Bioorg Med Chem Lett, 2011)
